Each block holds one molecule with its values, some of them ahead of it. No end group written: not given here.
Target: T1, human TAS1R2-P21L/TAS1R3-WT (Homo sapiens, UniProt Q7RTX0+Q8TE23, P21L)
T1 construct: expressed in transfected cells; host or cells: HEK293T-Gα16gust44
T1 sequence (Q8TE23 20-839 P21L): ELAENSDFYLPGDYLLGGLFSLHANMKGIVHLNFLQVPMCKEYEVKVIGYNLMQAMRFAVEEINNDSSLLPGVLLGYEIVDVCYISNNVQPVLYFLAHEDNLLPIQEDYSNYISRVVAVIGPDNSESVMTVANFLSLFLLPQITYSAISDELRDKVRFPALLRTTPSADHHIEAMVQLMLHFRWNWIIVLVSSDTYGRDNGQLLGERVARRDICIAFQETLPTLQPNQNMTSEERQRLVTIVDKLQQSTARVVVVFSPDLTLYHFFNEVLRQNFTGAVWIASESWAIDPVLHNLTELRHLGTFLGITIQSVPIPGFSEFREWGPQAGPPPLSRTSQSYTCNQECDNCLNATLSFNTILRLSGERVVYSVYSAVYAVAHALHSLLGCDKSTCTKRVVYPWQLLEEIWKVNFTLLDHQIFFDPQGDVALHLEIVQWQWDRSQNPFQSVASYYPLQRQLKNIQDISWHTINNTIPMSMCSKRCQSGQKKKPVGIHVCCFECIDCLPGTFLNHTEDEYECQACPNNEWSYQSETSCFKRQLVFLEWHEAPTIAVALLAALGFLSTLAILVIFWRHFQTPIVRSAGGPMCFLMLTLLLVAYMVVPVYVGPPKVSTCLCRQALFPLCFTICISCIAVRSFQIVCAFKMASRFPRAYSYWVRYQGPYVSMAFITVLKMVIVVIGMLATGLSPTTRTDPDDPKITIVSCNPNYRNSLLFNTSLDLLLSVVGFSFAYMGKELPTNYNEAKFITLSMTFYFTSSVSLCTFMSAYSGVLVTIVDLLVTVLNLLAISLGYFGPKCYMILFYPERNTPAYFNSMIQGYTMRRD
T1 sequence (Q7RTX0 21-852): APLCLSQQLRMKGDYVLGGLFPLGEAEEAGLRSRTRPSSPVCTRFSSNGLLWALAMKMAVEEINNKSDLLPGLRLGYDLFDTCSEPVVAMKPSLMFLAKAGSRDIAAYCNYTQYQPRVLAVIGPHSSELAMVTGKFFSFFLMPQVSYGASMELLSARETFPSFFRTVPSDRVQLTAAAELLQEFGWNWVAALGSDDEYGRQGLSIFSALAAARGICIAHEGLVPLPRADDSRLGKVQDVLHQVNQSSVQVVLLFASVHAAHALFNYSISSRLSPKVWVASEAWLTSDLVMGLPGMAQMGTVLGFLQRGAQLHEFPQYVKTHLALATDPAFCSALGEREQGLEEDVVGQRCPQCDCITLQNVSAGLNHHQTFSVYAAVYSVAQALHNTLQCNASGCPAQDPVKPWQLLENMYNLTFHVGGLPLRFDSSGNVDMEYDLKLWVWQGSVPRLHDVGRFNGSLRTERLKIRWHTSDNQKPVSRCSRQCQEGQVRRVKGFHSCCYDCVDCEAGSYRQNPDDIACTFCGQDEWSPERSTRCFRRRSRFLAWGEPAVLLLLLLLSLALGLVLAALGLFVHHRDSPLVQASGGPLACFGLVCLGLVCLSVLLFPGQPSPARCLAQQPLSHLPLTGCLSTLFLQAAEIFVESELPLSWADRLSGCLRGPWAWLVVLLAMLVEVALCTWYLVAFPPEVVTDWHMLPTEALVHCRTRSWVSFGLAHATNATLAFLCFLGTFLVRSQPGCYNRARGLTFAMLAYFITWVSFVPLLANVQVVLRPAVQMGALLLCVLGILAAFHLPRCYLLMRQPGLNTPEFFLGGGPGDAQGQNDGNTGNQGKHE
Assay: Calcium mobilisation assay, TAS1R2 variant P21L with TAS1R3-WT
Assay type: cell-based
Settings: for Max ΔF/F0: maximal signal amplitude
Source text: The coding sequences for TAS1R2 and TAS1R3 were commercially synthesised, and the human codon was optimised for expression in human cells. The coding sequences of human TAS1R2 and TAS1R3 were subcloned and inserted into the mammalian expression vectors pcDNA6/myc-HisA and pcDNA4/myc-HisA (Invitrogen; Thermo Fisher Scientific; Illkirch, France) between the EcoRI and NotI restriction sites, generating the plasmids pcDNA6-TAS1R2 and pcDNA4-TAS1R3, respectively. To increase protein expression in mammalian cells, an upstream start codon was used, which was a sequence called MAX, corresponding to the QBI SP163 element also described in pcDNA4-HisMax (Invitrogen; Thermo Fisher Scientific; Illkirch, France). To measure the expression level of the receptor by immunohistochemistry, we used the FLAG sequence ([…]) in the C-terminal position, which encodes the FLAG tag epitope. SNP variants of TAS1R2 and TAS1R3 were constructed based on […], respectively, using site-directed mutagenesis (Genewiz; Leipzig, Germany).
The HEK293T cells were kindly provided by Jay P. Slack (Givaudan Flavors Corporation; Cincinnati, OH, USA). HEK293T cells stably transfected with Gα16gust44 [43, 67] were seeded in poly-D-lysine-coated clear-bottom black 96-well plates (0.35 × 10^5 cells/well) in high-glucose DMEM supplemented with 2 mM GlutaMAX, 10% dialysed foetal bovine serum with penicillin/streptomycin and G418 (400 μg/mL) at 37 °C and 6.3% CO2 in a humidified atmosphere as previously reported. […] As a negative control, HEK293T cells were mock-transfected with the empty expression vector. After a further 24 h of incubation, the HEK293T cells were washed with C1 buffer (130 mM NaCl, 5 mM KCl, 10 mM HEPES pH 7.4 and 2 mM CaCl2). The 96-well plates containing the cells were then stimulated with sweet-tasting compounds. […] Different concentration ranges were tested depending on the sweet compound injected. The Ca^2+ changes were expressed as fractional changes in fluorescent light intensity: ΔF/F = (F − F0)/F0, where F was the fluorescent light intensity at each point, and F0 was the value of emitted fluorescent light prior to stimulus application. To calculate dose–response relationships, the changes in fluorescence upon stimulus application were averaged, mock-subtracted and baseline-corrected. The dose–response data obtained were adjusted using a 4-parameter logistic equation. The half-maximal effective concentrations (EC50 values) and maximal signal amplitudes were calculated using SigmaPlot software (version 15.0) (Systat Software; San Jose, CA, USA).
For in vitro calcium mobilisation assay performed on hTAS1R2-SNPs, hTAS1R3-SNPs and mTAS1R3-I60T, 6 to 7 concentrations were tested for each sweet compound, plus buffer alone. All concentration–receptor combinations were measured in duplicate, and each experiment was repeated at least 4 times (8 wells/concentration). Results were expressed for each concentration as ΔF/F mean ± SEM and represented as dose–response curves.

EC50: 374 ± 11 µM
R1 = Variant EC50/WT EC50: 0.5
Max ΔF/F0: 0.24 ± 0.01
Molecule: CC1=CC(=O)NS(=O)(=O)O1 [Acesulfame K, acesulfame K]

Molecule: O=S(=O)(O)NC1CCCCC1 [Cyclamate, cyclamate]
EC50: 2110 ± 55 µM

Molecule: C[C@H](CC[C@@H](O[C@@H]1O[C@H](CO[C@@H]2O[C@H](CO)[C@@H](O)[C@H](O)[C@H]2O)[C@@H](O)[C@H](O)[C@H]1O[C@@H]1O[C@H](CO)[C@@H](O)[C@H](O)[C@H]1O)C(C)(C)O)[C@H]1CC[C@@]2(C)[C@@H]3CC=C4[C@@H](CC[C@H](O[C@@H]5O[C@H](CO[C@@H]6O[C@H](CO)[C@@H](O)[C@H](O)[C@H]6O)[C@@H](O)[C@H](O)[C@H]5O)C4(C)C)[C@]3(C)[C@H](O)C[C@]12C [Mogroside V, mogroside V]
EC50: 19.9 ± 1.1 µM
R1 = Variant EC50/WT EC50: 1.2
Max ΔF/F0: 1.18 ± 0.02

EC50: 100 ± 5.1 µM
R1 = Variant EC50/WT EC50: 1.3
Max ΔF/F0: 0.81 ± 0.02
Molecule: COc1ccc(CCC(=O)c2c(O)cc(O[C@@H]3O[C@H](CO)[C@@H](O)[C@H](O)[C@H]3O[C@@H]3O[C@@H](C)[C@H](O)[C@@H](O)[C@H]3O)cc2O)cc1O [NHDC, neohesperidin dihydrochalcone]

EC50: 0.67 ± 0.16 µM
R1 = Variant EC50/WT EC50: 0.8
Max ΔF/F0: 0.53 ± 0.04
Molecule: COC(=O)[C@H](Cc1ccccc1)NC(=O)[C@H](CC(=O)O)NCCC(C)(C)C [Neotame]

EC50: 26.3 ± 1.1 µM
R1 = Variant EC50/WT EC50: 1.5
Max ΔF/F0: 1.35 ± 0.03
Molecule: C=C(C)[C@@H]1CC=C(/C=N/O)CC1 [Perillartine, perillartine]

EC50: 19.5 ± 0.9 µM
R1 = Variant EC50/WT EC50: 1.2
Max ΔF/F0: 0.99 ± 0.02
Molecule: C=C1C[C@@]23CC[C@H]4[C@@](C)(CCC[C@@]4(C)C(=O)O[C@@H]4O[C@H](CO)[C@@H](O)[C@H](O[C@@H]5O[C@H](CO)[C@@H](O)[C@H](O)[C@H]5O)[C@H]4O[C@@H]4O[C@H](CO)[C@@H](O)[C@H](O)[C@H]4O)[C@@H]2CC[C@]1(O[C@@H]1O[C@H](CO)[C@@H](O)[C@H](O[C@@H]2O[C@H](CO)[C@@H](O)[C@H](O)[C@H]2O)[C@H]1O[C@@H]1O[C@H](CO)[C@@H](O)[C@H](O)[C@H]1O)C3 [Rebaudioside M, rebaudioside M]

EC50: 80 ± 13 µM
R1 = Variant EC50/WT EC50: 0.9
Max ΔF/F0: 0.50 ± 0.03
Molecule: OC[C@H]1O[C@H](O[C@]2(CCl)O[C@H](CCl)[C@@H](O)[C@@H]2O)[C@H](O)[C@@H](O)[C@H]1Cl [Sucralose]

R1 = Variant EC50/WT EC50: 1.1
Max ΔF/F0: 1.09 ± 0.01
Molecule: brazzein (QDKCKKVYENYPVSKCQLANQCNYDCKLDKHARSGECFYDEKRNLQCICDYCEY; ends and bridges not checked; cysteine pairing not given here; UniProt P56552 1-54, looked up) [sweet-tasting protein obtained by recombinant production using the yeast Pichia pastoris]

R1 = Variant EC50/WT EC50: 0.4
Max ΔF/F0: 0.19 ± 0.04
Molecule: thaumatin

EC50: 3.3 µM
B1: thaumatin (protein)
chain: ATFEIVNRCSYTVWAAASKGDAALDAGGRQLNSGESWTINVEPGTKGGKIWARTDCYFDDSGSGICKTGDCGGLLRCKRFGRPPTTLAEFSLNQYGKDYIDISNIKGFNVPMDFSPTTRGCRGVRCAADIVGQCPAKLKAPGGGCNDACTVFQTSEYCCTTGKCGPTEYSRFFKRLCPDAFSYVLDKPTTVTCPGSSNYRVTFCPTA
modifications: Eight disulfides
notes: sweet-tasting plant protein, E957
